Data published in patent publication EP0590885B1, “Antibiotic carbapenem compounds” (ZENECA LIMITED, priority 1992, dated 1994).
Converted amounts (≈) assume the structure as drawn.

Experiments:
Assay in all cases: MIC by agar-dilution technique, Diagnostic Sensitivity Test
Assay type in all cases: cell-based
[1] = tested on: Enterobacter cloacae -029; conditions: inoculum size 10^4 CFU/spot
Excerpt: (§1) The following results were obtained for representative compounds on a standard in vitro test system using Diagnostic Sensitivity Test. The antibacterial activity is described in terms of the minimum inhibitory concentration (MIC) determined by the agar-dilution technique with an inoculum size of 10^4 CFU/spot.

Enterobacter cloacae 108 = conditions: inoculum size 10^4 CFU/spot
Excerpt: as §1

S. aureus 147N = conditions: Staphylococcus aureus, inoculum size 10^4 CFU/spot
Excerpt: as §1

E. coli TEM = conditions: Escherichia coli
Excerpt: as §1

| SMILES | MIC [1] [mg/L] | MIC (Enterobacter cloacae 108) [mg/L] | MIC (S. aureus 147N) [mg/L] | MIC (E. coli TEM) [mg/L] |
| --- | --- | --- | --- | --- |
| C[C@@H](O)[C@H]1C(=O)N2C(C(=O)O)=C(S[C@@H]3CN[C@H](C(=O)Nc4cccc(/C=C/C(=O)O)c4)C3)[C@H](C)[C@H]12 [Example 1, (1R,5S,6S,8R,2'S,4'S)-2-(2-(3-(E-2-Carboxy-1-ethenyl)phenylcarbamoyl)pyrrolidin-4-ylthio)-6-(1-hydroxyethyl)-1-methylcarbapenem-3-carboxylic acid] | 0.13 (≈ 0.259 µM) | 2 (≈ 3.99 µM) | 0.13 (≈ 0.259 µM) | 0.03 (≈ 0.0598 µM) |
| C[C@@H](O)[C@H]1C(=O)N2C(C(=O)O)=C(S[C@@H]3CN[C@H](C(=O)Nc4cc(/C=C/C(=O)O)ccc4O)C3)[C@H](C)[C@H]12 [Example 2, (1R,5S,6S,8R,2'S,4'S)-2-(2-(3-(E-2-Carboxy-1-ethenyl)-6-hydroxyphenylcarbamoyl)pyrrolidin-4-ylthio)-6-(1-hydroxyethyl)-1-methylcarbapenem-3-carboxylic acid] | 0.25 (≈ 0.483 µM) | 4 (≈ 7.73 µM) | 0.25 (≈ 0.483 µM) | 0.06 (≈ 0.116 µM) |
| C[C@@H](O)[C@H]1C(=O)N2C(C(=O)O)=C(S[C@@H]3CN[C@H](C(=O)Nc4cccc(OCC(=O)O)c4)C3)[C@H](C)[C@H]12 [Example 3, (1R,5S,6S,8R,2'S,4'S)-2-(2-(3-Carboxymethoxyphenylcarbamoyl)pyrrolidin-4-ylthio)-6-(1-hydroxyethyl)-1-methylcarbapenem-3-carboxylic acid] | 0.06 (≈ 0.119 µM) | 1 (≈ 1.98 µM) | 0.25 (≈ 0.495 µM) | 0.03 (≈ 0.0593 µM) |
| C[C@@H](O)[C@H]1C(=O)N2C(C(=O)O)=C(S[C@@H]3CN[C@H](C(=O)Nc4cccc(C(=O)NCC(=O)O)c4)C3)[C@H](C)[C@H]12 [Example 7, (1R,5S,6S,8R,2'S,4'S)-2(2-(3-Carboxymethylaminocarbonylphenylcarbamoyl)-pyrrolidin-4-ylthio)-6-(1-hydroxyethyl)-1-methylcarbapenem-3-carboxylic acid] | 0.13 (≈ 0.244 µM) | 1 (≈ 1.88 µM) | 0.25 (≈ 0.469 µM) | 0.03 (≈ 0.0563 µM) |
| CO/N=C(\C(=O)N[C@@H]1C(=O)N2C(C(=O)O)=C(CSc3nc(=O)c(=O)[nH]n3C)CS[C@H]12)c1csc(N)n1 [ceftriaxone, reference compound] | 0.06 (≈ 0.108 µM) | 32 (≈ 57.7 µM) | 2 (≈ 3.61 µM) | 0.03 (≈ 0.0541 µM) |
